According to patent US20240109914A1, “IMIDAZOTHIAZOLE COMPOUNDS AND ANALOGS THEREOF AND METHODS FOR TREATING NEMATODE INFECTIONS IN PLANTS” (The Governing Council of The University of Toronto, priority 2021, published 2024):
Read-outs that look alike come from different tables or passages of the source.

How the values were obtained:
M. incognita J2 larvae = experiment: Meloidogyne incognita in vitro larval mobility assay; assay type: in vivo; conditions: 45 μM, 4 days; for Replicate 1 z-score / Replicate 2 z-score: z-score vs untreated DMSO wells; for pest or weed control at 45 µM: Meloidogyne incognita, 96 h
Experimental: M. incognita (Kofoid & White) Chitwood Race 1 (originally isolated in Maryland) was used for all experiments, and was maintained on pepper (Capsicum annuum L.) cv. PA-136 in a greenhouse as previously described^44. Infective J2 juveniles were collected as described in ref. 45. The microwell dose-response experiments were carried out similarly to previously described protocols^44,46. In brief, 50 μL of deionized water was added to the wells of 96-well polystyrene plates and 0.5 μL of test compound (or DMSO alone) was added to each well. Approximately 35 J2s were then added to each well in 49.5 μL of deionized water. The chemicals were tested at 45 μM, and the final concentration of DMSO in each well was 0.5% (v/v). DMSO alone was added to 3 separate wells. The plates were covered with plastic adhesive strips, and the lids of the plates were sealed with parafilm. The plates were incubated at 25° C. without shaking for 4 days. The percent of worms that were immobile (% immobile) was quantified by counting the number of immobile worms after 4 days of incubation, dividing the number of immobile worms by the total number of worms in the well, and then multiplying by 100. Two replicates were performed for each treatment. The z-score for each treatment was calculated using the mean and standard deviation of the untreated DMSO control wells. The average % immobile value was calculated across the two replicates. A test compound was considered most promising if the z-score was greater than 1.645 in both replicates.

tomato plants = experiment: Root mass of tomato plants in the soil infectivity assay; conditions: 45 μM in soil, 8 weeks
Experimental: For the infectivity assays, 90 grams of soil (1:1 sand:loam mix) was added to each cell of several 6-cell plastic garden packs. The soil was drenched with 18 mL of deionized water containing dissolved test compound or DMSO alone. 2,500 infective J2 juveniles were then added to the soil in 2 mL of deionized water, for a total water volume of 20 mL. […] The DMSO concentration varied from 0.1% to 0.8% (v/v) depending on the stock concentration of the test compound. The highest DMSO concentration was used as the DMSO control. The J2s were incubated in the soil and chemical for 24 hours, after which two- to three-week old tomato seedlings were transplanted into the soil (one plant per cell). Two replicates were performed for each chemical treatment, and four replicates were done for the DMSO controls. The whole experiment was replicated twice, in two different batches on two different days, for a total of four replicates for each test compound treatment, and eight replicates for the DMSO controls. Inoculated plants were grown for 8 weeks in a greenhouse, as described^47, under long-day conditions (16-h photoperiod) with 26/18° C. day/night temperatures. After 8 weeks, the plants were destructively harvested. The tops were removed and discarded, and roots were gently washed with water to remove adhering soil. Eggs were extracted by placing rinsed roots in 0.6% sodium hypochlorite and agitating at 300 rpm for 3 min. Roots were then rinsed over nested 250—and 25.4-μm sieves, with eggs collected from the latter and suspended in water. Roots were dried in a 65° C. oven for at least 24 hours, after which dry roots were weighed. The number of eggs from each plant root was counted on a dissection microscope using a haemocytometer, and the number of eggs per milligram of root was calculated by dividing the total egg number by the mass of the dried root material. An average was taken across the replicates performed on the same day, and then normalized to the DMSO control average. […] An average percent effectiveness value was then calculated across the two different batches carried out on different days.

M. hapla eggs = experiment: Meloidogyne hapla in vitro egg hatch assay; assay type: in vivo; conditions: 45 μM; for Number of Hatched Eggs: 8 days at room temperature, about 90 eggs per well, tested once; for Number of Hatched Eggs z-score: 8 days, z-score vs 8 untreated DMSO wells
Experimental: The M. hapla were originally obtained from a soil sample of muck soil from Ste-Clotilde, Quebec, Canada. Using tweezers, egg masses were carefully removed from root material from infested carrot roots. Eggs were liberated from the egg masses using a mild sodium hypochlorite bleaching protocol, whereby egg masses were bleached with a 10% commercial bleach (sodium hypochlorite) solution for 4 minutes with vigorous shaking, and then washed 5 times with deionized water. 50 μL of deionized water was added to each well of two 96-well polystyrene culture plates, and 0.5 μL of chemical (or DMSO alone) was added to each well. Approximately 90 eggs were added to each well in 49.5 ul of deionized water. The plates were sealed with parafilm and incubated for 8 days at room temperature without shaking in a Tupperware box filled with wet paper towels. After the 8-day incubation, the number of hatched eggs was counted for each treatment and for the untreated controls. Each chemical treatment was tested only once. 8 separate untreated DMSO controls were included in the experiment. The z-score for each treatment was calculated using the mean and standard deviation of the untreated DMSO control wells.

M. incognita = experiment: Meloidogyne incognita infectivity assay (soil, tomato roots); assay type: in vivo; conditions: Meloidogyne incognita, 1344 h, 45 μM in soil, 8 weeks, eggs per mg root relative to DMSO control, read-out: % effectiveness at inhibiting reproduction of M. incognita
Excerpt: An M. incognita population originally collected from grape (Vitis vinifera) in Parlier, California, was used for all experiments, and they were maintained on tomato plants (Solanum lycopersicum ‘Rutgers’) as previously described^47. Infective J2 juveniles were collected as described in ref. 47.

C. elegans = C. elegans dose-response (viability, minimum lethal concentration); assay type: in vivo, Caenorhabditis elegans; conditions: Caenorhabditis elegans, 72 h, L1 worms, 3 days at 20° C.
Experimental: Forty microliters of an HB101 E. coli bacterial suspension in liquid NGM (nematode growth media—see ref. 42 for the recipe) was added to each well of a 96-well flat-bottom culture plate, after which approximately 25 synchronized L1 worms, in 10 μl of M9 buffer (see ref. 43 for the recipe), were added to each well. The synchronized L1 worms were obtained from an embryo preparation performed the previous day (see ref. 43 for the protocol). For the L1 assays, 0.5 μl of test compound solution (or DMSO alone) was immediately added to the wells using a multichannel pipette; the final DMSO concentration is 1% (v/v). The worms were incubated for 3 days at 20° C. and the number of viable animals was counted.
At least three biological replicates were performed for each dose-response assay. For each biological replicate, two technical replicates were performed and the numbers of viable animals for each technical replicate were combined (i.e. ˜ 50 worms assayed per concentration). The number of viable worms at each concentration was divided by the corresponding DMSO control value to give the “relative viability” for each concentration. The “relative viability” values were then averaged across the biological replicates. Minimum lethal concentration was defined as the lowest concentration at which at least 20% of worms die.

[1] = average of the two replicates, read-out: Average % Immobile
[2] = replicate 1, read-out: Replicate 1 % Immobile
[3] = replicate 2, read-out: Replicate 2 % Immobile
[4] = lowest concentration at which at least 20% of worms die, read-out: Minimum Lethal Concentration
[5] = same values in ppm, read-out: Minimum Lethal Concentration (ppm)

Structure (SMILES)	Replicate 1 z-score (M. incognita J2 larvae; replicate 1)	Replicate 2 z-score (M. incognita J2 larvae; replicate 2)	pest or weed control at 45 µM (M. incognita J2 larvae; [1]) [%]	pest or weed control at 45 µM (M. incognita J2 larvae; [2]) [%]	pest or weed control at 45 µM (M. incognita J2 larvae; [3]) [%]	Normalized root mass (relative to DMSO control) (tomato plants)	Number of Hatched Eggs (M. hapla eggs)	Number of Hatched Eggs z-score (M. hapla eggs)	pest or weed control at 45 µM (M. incognita) [%]	minimal effective concentration (C. elegans; [4]) [µM]	minimal effective concentration (C. elegans; [5]) [µg/mL]
Fc1cccc(-c2cn3ccsc3n2)c1 [I-14]	[15.43]	[13.11]	≥ 75	98.2	82.2	1.28	1	[4.30]	17.6	100	21.8
Cc1c(-c2cccc(F)c2)nc2sccn12 [I-15]						1.35			5.8	> 100	> 23.2
Cc1csc2nc(-c3cccc(F)c3)cn12 [I-16]						1.15			0	> 100	> 23.2
Cc1cn2cc(-c3cccc(F)c3)nc2s1 [I-17]						1.30	3	[3.64]	21.8	100	23.2
Fc1ccccc1-c1cn2ccsc2n1 [I-18]						1.13			0		
Cc1c(-c2ccccc2F)nc2sccn12 [I-19]						1.27			16.6	> 100	> 23.2
Cc1cn2cc(-c3ccccc3F)nc2s1 [I-21]	[5.78]	[5.62]	45.9	51	40.8	1.24			24.4	50	11.6
Clc1cccc(-c2cn3ccsc3n2)c1 [I-23]	[14.66]	[13.61]	≥ 75	94.4	85		1	[4.30]		100	23.5
Cc1c(-c2cccc(Cl)c2)nc2sccn12 [I-24]	[1.68]	[4.78]	33.6	30.9	36.2	1.34			23.6	100	24.9
Cc1csc2nc(-c3cccc(Cl)c3)cn12 [I-25]						1.27	4	[3.31]	24.6	> 100	> 24.9
Cc1cn2cc(-c3cccc(Cl)c3)nc2s1 [I-26]	[6.47]	[1.92]	37.4	54.4	20.4	1.43			0	25	6.2
Clc1ccccc1-c1cn2ccsc2n1 [I-27]	[6.81]	[3.28]	42	56	27.9	1.42	4	[3.31]	0	100	23.5
Cc1c(-c2ccccc2Cl)nc2sccn12 [I-28]						1.37			17.4	> 100	> 24.9
Cc1csc2nc(-c3ccccc3Cl)cn12 [I-29]						1.14	4	[3.31]	15	100	24.9
Cc1cn2cc(-c3ccccc3Cl)nc2s1 [I-30]	[8.34]	[5.62]	52.1	63.5	40.8	1.30			16	> 100	> 24.9
Clc1ccc(-c2cn3ccsc3n2)cc1Cl [I-31]	[2.33]	[4.78]	35.1	34.1	36.2	1.25	1	[4.30]	18.1	6.25	1.7
Clc1ccc(-c2cn3ccsc3n2)c(Cl)c1 [I-32]						1.31			4.4	6.25	1.7
Brc1cccc(-c2cn3ccsc3n2)c1 [I-34]	[15.00]	[14.11]	≥ 75	96.1	87.8		1	[4.30]		50	14
Cc1c(-c2cccc(Br)c2)nc2sccn12 [I-35]						1.26	2	[3.97]	10.2	> 50	14.7
Cc1cn2cc(-c3cccc(Br)c3)nc2s1 [I-37]						1.31			21.6	> 100	> 29.3
Brc1ccccc1-c1cn2ccsc2n1 [I-38]						1.21			0	100	27.9
Cc1cn2cc(-c3ccccc3Br)nc2s1 [I-41]	[3.31]	[6.62]	42.6	38.9	46.3	1.18			6.6	> 100	> 29.3
